These results are taken from ChEMBL document CHEMBL1201862, “PubChem BioAssay data set” (2004).

What all share (experiment): DTP human tumour cell line panel, 48 h
The subject of assay [1] is OVCAR-5.
Assay [2] deals with IGROV-1.
Assay [3] deals with SR.
The test system of assay [4] is SK-OV-3.
Assay [5] deals with RXF 393.
Assay [6] has as its system EKVX.
For assay [7], the system named is NCI-H226.
Assay [8] concerns TK-10.
Assay [9] relates to ACHN.
The test system of assay [10] is RPMI-8226.
For assay [11], the system named is SF-295.
Assay [12] deals with COLO 205.
Assay [13] relates to HOP-92.
Assay [14] has as its system A498.
Assay [15] has as its system MOLT-4.
The test system of assay [16] is HCT-15.
Assay [17] concerns M14.

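A five-concentration, 48-hour dose response in 96-well plates underlies each endpoint, interpolated linearly between surrounding concentrations. Here, GI50 denotes the concentration required for 50% inhibition of growth.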 The source made the active and inactive calls. No stated cut-off is given here; in the data, active = GI50 up to about 1.1 µM and inactive = higher.

Turning to `N[C@H]1C2C3CC4C5CC(C42)C1(c1ccccc1)C53` (some centres undefined), the GI50 is 75 µM (inactive) in assay [1]; > 100 µM (inactive) in assay [2]; > 100 µM (inactive) in assay [3]; > 100 µM (inactive) in [4]; 45.1 µM (inactive) in assay [5]; > 100 µM (inactive) in [6]. Moreover, the GI50 in assay [7] was > 100 µM (inactive); in assay [8], > 100 µM (inactive); in assay [9], > 100 µM (inactive); in assay [10] it was > 100 µM (inactive); in assay [11] it was > 100 µM (inactive); in assay [12], 81.3 µM (inactive). Besides, the GI50 in [13] is 65.8 µM (inactive); in assay [14] it was > 100 µM (inactive); in [15], > 100 µM (inactive); in [16] it was more than 100 µM; in assay [17], > 100 µM (inactive).

For the compound `CCc1cccc(C)c1NC(=O)C(=O)Cc1nc2ccccc2s1`, the GI50 is 0.444 µM (active) in assay [2]; > 100 µM (inactive) in [3]; > 100 µM (inactive) in [4]; > 100 µM (inactive) in [5]; > 100 µM (inactive) in assay [6]; > 100 µM (inactive) in assay [7]. Also, the GI50 was > 100 µM (inactive) in [8]; > 100 µM (inactive) in assay [9]; > 100 µM (inactive) in [11]; > 100 µM (inactive) in assay [12]; 0.47 µM (active) in assay [13]; > 100 µM (inactive) in assay [14]. Besides, the GI50 in assay [15] and in [17] was > 100 µM (inactive) in each case.

For `COc1ccc(C(=O)N/N=C/c2c(C)n(C)n(-c3ccccc3)c2=O)cc1`, the GI50 in assay [2], in assay [3], in [4], in assay [5], in assay [6] and in assay [7] was > 100 µM (inactive) in each case. The GI50 in assay [8], in [9], in [10], in assay [11], in assay [12] and in [13] was > 100 µM (inactive) throughout. Besides, the GI50 in [14] was > 100 µM (inactive); in assay [15] it was > 100 µM (inactive); in assay [16], more than 100 µM; in assay [17], > 100 µM (inactive).

As for `O=C1CN(C(=O)c2ccccc2)Cc2[nH]c3ccccc3c21`, the GI50 in assay [1], in assay [2], in assay [3], in assay [4], in [5] and in assay [6] was > 100 µM (inactive) throughout. Also, the GI50 in [7], in assay [8], in [9], in [10], in [11] and in assay [12] was > 100 µM (inactive) throughout. Besides, the GI50 in assay [13] was > 100 µM (inactive); in [15] it was > 100 µM (inactive); in [16] it was more than 100 µM; in assay [17], > 100 µM (inactive).

As to `C=Nc1ccc([N+](=O)[O-])cc1`, the GI50 in assay [1] is > 100 µM (inactive); in assay [2], > 100 µM (inactive); in assay [3] it was > 41.5 µM (inactive); in assay [4], > 100 µM (inactive); in assay [6], > 100 µM (inactive); in [7], > 100 µM (inactive). Further, the GI50 in [8] is > 100 µM (inactive); in assay [9], > 100 µM (inactive); in [10], > 31.6 µM (inactive); in [11] it was > 100 µM (inactive); in [12] it was > 100 µM (inactive); in assay [13], > 100 µM (inactive). The GI50 is > 100 µM (inactive) in [14], > 100 µM (inactive) in [15], more than 60.1 µM in assay [16] and > 100 µM (inactive) in [17].

In general, GI50 refers to the concentration giving 50% growth inhibition.
